Values of other authors, collected in PMC3136501 (PLoS ONE, 2011).

Test system: OCTs
Details: high-affinity interaction with OCTs; cited from earlier work

Row | SMILES | IC50 (interaction with OCTs)
1 | Nc1nc(NC2CC2)c2ncn([C@H]3C=C[C@@H](CO)C3)c2n1 [Abacavir] | low nanomolar range
2 | Cc1cn([C@H]2C[C@H](N=[N+]=[N-])[C@@H](CO)O2)c(=O)[nH]c1=O [Azidothymidine] | low nanomolar range
3 | Nc1nc(=O)n([C@@H]2CS[C@H](CO)O2)cc1F [Emtricitabine] | low nanomolar range
4 | Nc1ccn([C@@H]2CS[C@H](CO)O2)c(=O)n1 [Lamivudine] | low nanomolar range
5 | C[C@H](Cn1cnc2c(N)ncnc21)OCP(=O)(O)O [Tenofovir] | low nanomolar range
